{
  "source": "paper PMC5727165",
  "about": "“A switch in nucleotide affinity governs activation of the Src and Tec family kinases” (Scientific Reports, 2017)",
  "key": {"Itk^32K L351A": {"target": "T1, Itk^32K L351A (Homo sapiens, UniProt Q08881, L351A)", "T1 construct": "Human Itk^171–620 (Itk^32K); GST (cleaved yes); made in house; host or cells: baculovirus-infected Sf9 insect cells", "T1 sequence (Q08881 171-620 L351A)": "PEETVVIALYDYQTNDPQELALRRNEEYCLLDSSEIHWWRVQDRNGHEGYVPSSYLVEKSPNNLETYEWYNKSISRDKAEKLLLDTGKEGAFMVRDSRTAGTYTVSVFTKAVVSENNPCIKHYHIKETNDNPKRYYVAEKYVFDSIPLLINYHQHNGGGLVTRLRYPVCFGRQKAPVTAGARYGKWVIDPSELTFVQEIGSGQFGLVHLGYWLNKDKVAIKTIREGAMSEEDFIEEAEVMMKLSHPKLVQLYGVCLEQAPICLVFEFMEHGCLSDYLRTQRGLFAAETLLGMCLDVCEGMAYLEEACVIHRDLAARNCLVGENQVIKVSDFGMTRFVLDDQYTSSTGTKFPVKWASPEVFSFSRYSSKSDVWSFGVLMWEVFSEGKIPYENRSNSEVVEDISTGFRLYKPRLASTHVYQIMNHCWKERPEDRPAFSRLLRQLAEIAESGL", "test": "Fluorescence anisotropy binding of Mant-labelled nucleotides", "from_the_text": "Figure 3 An allosteric switch triggers nucleotide exchange. (a) Hydrophobic stack conservation in Src family kinases. The table illustrates the amino acid identity at each of the three positions in the hydrophobic stack in addition to the invariant tryptophan (Trp260 in Src) for all Src family kinase members. The positions are presented according to their N- to C-terminal order in the primary sequences. Where it was not possible to unambiguously determine the identity of the amino acid contributed by the SH2-kinase variable linker (V3), the residue is denoted by a question mark. (b) Small angle X-ray scattering of Itk^32K L351A (black). The scattering curve for wild type Itk^32K (cyan) is overlaid for comparison. […] (c) Rigid body modelling of Itk^32K L351A and fit to ab initio molecular envelope. Displacement of both the SH3 and SH2 domains is required for a good fit to the experimental scattering curve. (d) Determination of the binding constants of Itk^32K L351A for nucleotides by fluorescence anisotropy. […] (e) Determination of the thermal stabilities and relative binding affinities of non-phosphorylated Src^32KΔC L255A for nucleotides by differential scanning fluorimetry. […] TEXT PRINTED IN THE PICTURE: (d) Mant-ADP: Itk^32K L351A (non-phos) Kd (μM): 21.0 ± 2.1 | (d) Mant-ATP: Itk^32K L351A (non-phos) Kd (μM): 31.7 ± 2.7 | (e) ADP: Src^32KΔC L255A (non-phos) [nuc]1/2 (μM): 310 ± 20; Src^32KΔC L255A (non-phos) Tm^max (°C): 52.9; Src^32KΔC L255A (non-phos) ΔTm^max (°C): + 6.8 | (e) ATP: Src^32KΔC L255A (non-phos) [nuc]1/2 (μM): 100 ± 10; Src^32KΔC L255A (non-phos) Tm^max (°C): 54.2; Src^32KΔC L255A (non-phos) ΔTm^max (°C): + 8.1 | (e) apo: Src^32KΔC L255A (non-phos) Tm^max (°C): 46.1\nTo establish whether hydrophobic stack disassembly triggers a switch in nucleotide binding of the kinase domain, we measured the binding of both unphosphorylated and activation loop phosphorylated (pY511) Itk^32K L351A to ADP and ATP.\nThe binding constants for ADP and AMPPNP were determined for Src and Itk proteins by fluorescence anisotropy, using 2′/3′-Mant-labelled nucleotides (Jena Bioscience). Increasing concentrations of Itk^32K, Itk^L351A or Src^32K were incubated with 40 μM Mant-nucleotide in 30 mM Tris pH 7.5, 200 mM NaCl, 5 mM MgCl2, and 1 mM TCEP. Measurements were made with a Perkin Elmer LS50B fluorimeter (λex = 355 nm, λem = 447 nm) at 20 °C. For each data point 50–60 measurements, each with an integration time of 1 s, were averaged. For competition nucleotide displacement assays, 40–80 μM of protein was incubated with 40 μM Mant-ADP until equilibrium was established. Unlabelled nucleotide was titrated into the reaction and fluorescence anisotropy monitored. The equilibrium inhibition constant for the unlabelled nucleotide was calculated from the fitted curve."}, "Src^32KΔC": {"target": "T2, Src^32KΔC (Mus musculus, UniProt P05480)", "T2 construct": "mouse Src^85-523 (Src^32KΔC); GST (cleaved yes); made in house; host or cells: baculovirus-infected Sf9 insect cells", "T2 sequence (P05480 85-523, stated change not applied)": "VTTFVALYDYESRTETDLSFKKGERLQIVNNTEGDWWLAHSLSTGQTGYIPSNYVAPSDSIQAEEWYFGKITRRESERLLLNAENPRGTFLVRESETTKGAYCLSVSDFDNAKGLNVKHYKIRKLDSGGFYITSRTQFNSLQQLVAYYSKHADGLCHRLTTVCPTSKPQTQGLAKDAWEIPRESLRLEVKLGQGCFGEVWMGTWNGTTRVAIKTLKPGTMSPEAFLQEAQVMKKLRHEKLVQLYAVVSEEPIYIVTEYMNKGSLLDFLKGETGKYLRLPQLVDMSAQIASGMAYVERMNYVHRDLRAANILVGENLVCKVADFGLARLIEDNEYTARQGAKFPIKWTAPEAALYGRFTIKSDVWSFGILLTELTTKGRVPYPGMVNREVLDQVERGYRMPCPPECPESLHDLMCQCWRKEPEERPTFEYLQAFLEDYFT", "test": "Differential scanning fluorimetry (thermal stability vs nucleotide concentration)", "format": "binding", "conditions": "vs AMPPNP", "from_the_text": "Having observed that Itk^32K binds and is stabilised by ADP in the absence of a C-terminal tail, we investigated whether the C-terminal tail of Src influences its nucleotide binding or conformation in vitro, using a construct of Src lacking its C-tail (Src^32KΔC) and a SH2 domain mutant of Src that is incapable of binding phosphotyrosine peptides (Src^32K R175L, Supplementary Fig. 3a,b)[39]. […] Thermal stability measurements support the stabilisation of Src^32KΔC by ADP (Supplementary Fig. 6a). Thermal stabilities as a function of nucleotide concentration were measured by differential scanning fluorimetry (DSF). Samples contained 0.1 mg/ml protein in 50 mM Tris pH 7.5, 150 mM NaCl, 1 mM TCEP, and 5 mM MgCl2 with ADP, ATP, or AMPPNP concentrations ranging from 0–16 mM. Samples were measured in triplicate using a BioRad iQ™5 Multicolor Real-Time PCR Detection System. For detection of phosphorylated protein, samples were diluted and 1 ng and 15 ng were loaded to SDS-PAGE for Src and Itk proteins, respectively. Phosphorylation was measured by immunoblot."}},
  "note": "Like-named read-outs stand apart in the source and are kept apart here.",
  "data": [
    {"compound": "Nc1ncnc2c1ncn2[C@@H]1O[C@H](COP(=O)(O)OP(=O)(O)O)[C@@H](O)[C@H]1O", "note": "[ADP]", "values": [
      {"measurement": "Kd", "setting": "Itk^32K L351A; Itk^32K L351A non-phosphorylated, read-out: Kd", "result": 21, "unit": "µM"},
      {"measurement": "Kd", "setting": "Itk^32K L351A; activation loop-phosphorylated (pTyr511) Itk^32K L351A, read-out: Kd (binding constant)", "result": 30, "unit": "µM"},
      {"measurement": "thermal stabilisation compared with other nucleotides", "setting": "Src^32KΔC", "result": "higher thermal stability"}
    ]}
  ]
}
